From patent US11795171B2, “Pyrrolotriazinones and imidazotriazinones as ubiquitin-specific protease 7 inhibitors” (Valo Health, Inc., priority 2014, dated 2023)

Target: USP7 (Homo sapiens (Human), UniProt Q93009)
Experiment: USP7 Assay B (Ubitquin-Rhodamine110 Assay)
Type: biochemical
Settings: Ub-Rh110 substrate 25 nM
Method: Stock compound solutions were stored at −20° C. as 10 mM in DMSO. […] Prestamped assay plates were allowed to come to room temperature on the day of the assay. For the screen, 100 nL of 2 mM was pre-dispensed for a final screening concentration of 10 μM (DMSO(fc)=0.5%). […] Unless otherwise indicated, all follow-up assays were run on triplecate plates. […] Pre-stamped with compounds were either not preincubated or preincubated with USP7 between 30 to 120 minutes prior to the addition of 10 μL of 2×Ub-Rh110 to compound plates. Plates were incubated stacked for either 23 or 45 minutes at room temperature before fluorescence was read on the Envision (Excitation at 485 nm and Emission at 535 nm; Perkin Elmer) or on the PheraSTAR (Excitation at 485 nm and Emission at 535 nm; BMG Labtech).
Data from USP7 Assays A and B were reported as percent inhibition (inh) compared with control wells based on the following equation: % inh=1−((FLU−AveLow)/(AveHigh−AveLow)) where FLU=measured Fluorescence (See Tables 2 and 3). AveLow=average Fluorescence of no enzyme control (n=16). AveHigh=average Fluorescence of DMSO control (n=16). IC50 values were determined by curve fitting of the standard 4 parameter logistic fitting algorithm included in the Activity Base software package: IDBS XE Designer Model205. Data is fitted using the Levenburg Marquardt algorithm.

Sequence of USP7 (Q93009 208-1102): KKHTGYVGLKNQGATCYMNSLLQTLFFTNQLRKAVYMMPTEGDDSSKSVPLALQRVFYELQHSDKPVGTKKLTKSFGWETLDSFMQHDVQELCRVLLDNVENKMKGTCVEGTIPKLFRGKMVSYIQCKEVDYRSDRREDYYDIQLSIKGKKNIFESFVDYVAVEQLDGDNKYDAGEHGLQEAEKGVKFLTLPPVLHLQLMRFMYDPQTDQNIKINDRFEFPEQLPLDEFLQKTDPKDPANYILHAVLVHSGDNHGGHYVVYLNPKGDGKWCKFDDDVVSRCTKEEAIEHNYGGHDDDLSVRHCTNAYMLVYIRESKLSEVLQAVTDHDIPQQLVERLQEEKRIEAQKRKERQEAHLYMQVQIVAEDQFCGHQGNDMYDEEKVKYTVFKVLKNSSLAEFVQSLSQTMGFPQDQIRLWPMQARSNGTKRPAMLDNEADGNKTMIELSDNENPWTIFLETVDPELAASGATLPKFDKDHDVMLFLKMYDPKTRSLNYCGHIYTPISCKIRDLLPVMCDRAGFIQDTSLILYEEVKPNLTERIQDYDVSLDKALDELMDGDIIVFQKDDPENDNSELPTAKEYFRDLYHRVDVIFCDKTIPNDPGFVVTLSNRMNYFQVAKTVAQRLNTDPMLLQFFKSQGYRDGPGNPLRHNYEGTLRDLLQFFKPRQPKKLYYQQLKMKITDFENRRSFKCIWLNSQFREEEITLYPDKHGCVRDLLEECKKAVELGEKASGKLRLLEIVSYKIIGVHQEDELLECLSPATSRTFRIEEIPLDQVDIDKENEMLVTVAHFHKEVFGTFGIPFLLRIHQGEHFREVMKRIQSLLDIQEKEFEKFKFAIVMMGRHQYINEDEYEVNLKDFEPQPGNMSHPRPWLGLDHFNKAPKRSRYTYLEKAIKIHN

Structure (SMILES)	IC50 [µM]
O=C(NCc1ccc(Cl)cc1)Nc1cc2c(=O)n(CC3(O)CCN(C(=O)C4CC4)CC3)cnn2c1 [Compound I-91, 1-(4-chlorobenzyl)-3-(3-((1-(cyclopropanecarbonyl)-4-hydroxypiperidin-4-yl)methyl)-4-oxo-3,4-dihydropyrrolo[2,1-f][1,2,4]triazin-6-yl)urea]	> 10
CCN(c1ccccc1)c1ccc(C(=O)N2CCC(O)(Cn3cnn4cccc4c3=O)CC2)cc1 [Compound I-72, 3-((1-(4-(ethyl(phenyl)amino)benzoyl)-4-hydroxypiperidin-4-yl)methyl)pyrrolo[2,1-f][1,2,4]triazin-4(3H)-one]	1 to 10
O=C(Nc1cc(F)cc(F)c1)Nc1cc2c(=O)n(CC3(O)CCN(C(=O)C4CC4)CC3)cnn2c1 [Compound I-93, 1-(3-((1-(cyclopropanecarbonyl)-4-hydroxypiperidin-4-yl)methyl)-4-oxo-3,4-dihydropyrrolo[2,1-f][1,2,4]triazin-6-yl)-3-(3,5-difluorophenyl)urea]	> 10
O=C(c1cccc(-c2ccc(Cl)cc2)c1)N1CCC(O)(Cn2cnn3cccc3c2=O)CC1 [Compound I-12, 3-((1-(4′-chloro-[1,1′-biphenyl]-3-carbonyl)-4-hydroxypiperidin-4-yl)methyl)pyrrolo[2,1-f][1,2,4]triazin-4(3H)-one]	1 to 10
O=C(Nc1ccc2c(c1)CCC2)Nc1cc2c(=O)n(CC3(O)CCN(C(=O)C4CC4)CC3)cnn2c1 [Compound I-90, 1-(3-((1-(cyclopropanecarbonyl)-4-hydroxypiperidin-4-yl)methyl)-4-oxo-3,4-dihydropyrrolo[2,1-f][1,2,4]triazin-6-yl)-3-(2,3-dihydro-1H-inden-5-yl)urea]	> 10
O=C(c1ccc(S(=O)(=O)c2ccccc2)cc1)N1CCC(O)(Cn2cnn3cccc3c2=O)CC1 [Compound I-61, 3-((4-hydroxy-1-(4-(phenylsulfonyl)benzoyl)piperidin-4-yl)methyl)pyrrolo[2,1-f][1,2,4]triazin-4(3H)-one]	1 to 10
O=C(c1cccc(-c2ccc3scnc3c2)c1)N1CCC(O)(Cn2cnn3cccc3c2=O)CC1 [Compound I-23, 3-((1-(3-(benzo[d]thiazol-5-yl)benzoyl)-4-hydroxypiperidin-4-yl)methyl)pyrrolo[2,1-f][1,2,4]triazin-4(3H)-one]	1 to 10
Cc1nnnn1Cc1ccc(C(=O)N2CCC(O)(Cn3cnn4cccc4c3=O)CC2)cc1 [Compound I-66, 3-((4-hydroxy-1-(4-((5-methyl-1H-tetrazol-1-yl)methyl)benzoyl)piperidin-4-yl)methyl)pyrrolo[2,1-f][1,2,4]triazin-4(3H)-one]	> 10
Cc1ccc(C)c(C(=O)Nc2cc3c(=O)n(CC4(O)CCN(C(=O)C5CC5)CC4)cnn3c2)c1 [Compound I-109, N-(3-((1-(cyclopropanecarbonyl)-4-hydroxypiperidin-4-yl)methyl)-4-oxo-3,4-dihydropyrrolo[2,1-f][1,2,4]triazin-6-yl)-2,5-dimethylbenzamide]	> 10
CC(=O)Nc1cc2c(=O)n(CC3(O)CCN(C(=O)C[C@@H](C)c4ccccc4)CC3)cnn2c1 [Compound I-81, (R)-N-(3-((4-hydroxy-1-(3-phenylbutanoyl)piperidin-4-yl)methyl)-4-oxo-3,4-dihydropyrrolo[2,1-f][1,2,4]triazin-6-yl)acetamide]	0.2 to 1
Cc1ccc2cc(-c3ccc(C(=O)N4CCC(O)(Cn5cnn6cccc6c5=O)CC4)cc3)ccc2n1 [Compound I-45, 3-((4-hydroxy-1-(4-(2-methylquinolin-6-yl)benzoyl)piperidin-4-yl)methyl)pyrrolo[2,1-f][1,2,4]triazin-4(3H)-one]	1 to 10
CC(C)(c1ccccc1)c1ccc(C(=O)N2CCC(O)(Cn3cnn4cccc4c3=O)CC2)cc1 [Compound I-55, 3-((4-hydroxy-1-(4-(2-phenylpropan-2-yl)benzoyl)piperidin-4-yl)methyl)pyrrolo[2,1-f][1,2,4]triazin-4(3H)-one]	1 to 10
O=C(c1ccc(-c2cscn2)cc1)N1CCC(O)(Cn2cnn3cccc3c2=O)CC1 [Compound I-59, 3-((4-hydroxy-1-(4-(thiazol-4-yl)benzoyl)piperidin-4-yl)methyl)pyrrolo[2,1-f][1,2,4]triazin-4(3H)-one]	> 10
O=C(Nc1ccc(F)cc1)Nc1cc2c(=O)n(CC3(O)CCN(C(=O)C4CC4)CC3)cnn2c1 [Compound I-88, 1-(3-((1-(cyclopropanecarbonyl)-4-hydroxypiperidin-4-yl)methyl)-4-oxo-3,4-dihydropyrrolo[2,1-f][1,2,4]triazin-6-yl)-3-(4-fluorophenyl)urea]	> 10
O=C(c1ccc(-c2ccc(C(=O)N3CCC(O)(Cn4cnn5cccc5c4=O)CC3)cc2)cc1)N1CCCC1 [Compound I-39, 3-((4-hydroxy-1-(4′-(pyrrolidine-1-carbonyl)-[1,1′-biphenyl]-4-carbonyl)piperidin-4-yl)methyl)pyrrolo[2,1-f][1,2,4]triazin-4(3H)-one]	1 to 10
Cn1c(-c2cccc(C(=O)N3CCC(O)(Cn4cnn5cccc5c4=O)CC3)c2)cc2ccccc21 [Compound I-25, 3-((4-hydroxy-1-(3-(1-methyl-1H-indol-2-yl)benzoyl)piperidin-4-yl)methyl)pyrrolo[2,1-f][1,2,4]triazin-4(3H)-one]	0.2 to 1
O=C(c1ccccc1-c1cccc(F)c1)N1CCC(O)(Cn2cnn3cccc3c2=O)CC1 [Compound I-4, 3-((1-(3′-fluoro-[1,1′-biphenyl]-2-carbonyl)-4-hydroxypiperidin-4-yl)methyl)pyrrolo[2,1-f][1,2,4]triazin-4(3H)-one]	> 10
COc1cccc(-c2cccc(C(=O)N3CCC(O)(Cn4cnn5cccc5c4=O)CC3)c2)c1 [Compound I-10, 3-((4-hydroxy-1-(3′-methoxy-[1,1′-biphenyl]-3-carbonyl)piperidin-4-yl)methyl)pyrrolo[2,1-f][1,2,4]triazin-4(3H)-one]	> 10
COc1ccc(-c2cccc(C(=O)N3CCC(O)(Cn4cnn5cccc5c4=O)CC3)c2)cc1 [Compound I-8, 3-((4-hydroxy-1-(4′-methoxy-[1,1′-biphenyl]-3-carbonyl)piperidin-4-yl)methyl)pyrrolo[2,1-f][1,2,4]triazin-4(3H)-one]	1 to 10
O=C(c1ccccc1-c1ccsc1)N1CCC(O)(Cn2cnn3cccc3c2=O)CC1 [Compound I-3, 3-((4-hydroxy-1-(2-(thiophen-3-yl)benzoyl)piperidin-4-yl)methyl)pyrrolo[2,1-f][1,2,4]triazin-4(3H)-one]	> 10
N#Cc1ccc(NC(=O)Nc2cc3c(=O)n(CC4(O)CCN(C(=O)C5CC5)CC4)cnn3c2)cc1 [Compound I-100, 1-(4-cyanophenyl)-3-(3-((1-(cyclopropanecarbonyl)-4-hydroxypiperidin-4-yl)methyl)-4-oxo-3,4-dihydropyrrolo[2,1-f][1,2,4]triazin-6-yl)urea]	> 10
Cc1cc(C)n(Cc2ccc(C(=O)N3CCC(O)(Cn4cnn5cccc5c4=O)CC3)cc2)n1 [Compound I-69, 3-((1-(4-((3,5-dimethyl-1H-pyrazol-1-yl)methyl)benzoyl)-4-hydroxypiperidin-4-yl)methyl)pyrrolo[2,1-f][1,2,4]triazin-4(3H)-one]	1 to 10
O=C(c1cccc(-c2cccc(Cl)c2)c1)N1CCC(O)(Cn2cnn3cccc3c2=O)CC1 [Compound I-13, 3-((1-(3′-chloro-[1,1′-biphenyl]-3-carbonyl)-4-hydroxypiperidin-4-yl)methyl)pyrrolo[2,1-f][1,2,4]triazin-4(3H)-one]	1 to 10
